From ChEMBL document CHEMBL1268934, “Design, synthesis, and subtype selectivity of 3,6-disubstituted β-carbolines at Bz/GABA(A)ergic receptors. SAR and studies directed toward agents for treatment of alcohol abuse” (Bioorg Med Chem, 2010)

How the values were obtained:
Format in all cases: cell-based, HEK293
[1] = target: T1, GABA-A receptor; alpha-1/beta-3/gamma-2 (Homo sapiens, UniProt P14867+P18507+P28472); assay: Displacement of [3H]flunitrazepam from human recombinant GABAA alpha-1-beta-3-gamma-2 receptor expressed in HEK cells by liquid scintillation counting
T1 sequence (P14867 whole entry): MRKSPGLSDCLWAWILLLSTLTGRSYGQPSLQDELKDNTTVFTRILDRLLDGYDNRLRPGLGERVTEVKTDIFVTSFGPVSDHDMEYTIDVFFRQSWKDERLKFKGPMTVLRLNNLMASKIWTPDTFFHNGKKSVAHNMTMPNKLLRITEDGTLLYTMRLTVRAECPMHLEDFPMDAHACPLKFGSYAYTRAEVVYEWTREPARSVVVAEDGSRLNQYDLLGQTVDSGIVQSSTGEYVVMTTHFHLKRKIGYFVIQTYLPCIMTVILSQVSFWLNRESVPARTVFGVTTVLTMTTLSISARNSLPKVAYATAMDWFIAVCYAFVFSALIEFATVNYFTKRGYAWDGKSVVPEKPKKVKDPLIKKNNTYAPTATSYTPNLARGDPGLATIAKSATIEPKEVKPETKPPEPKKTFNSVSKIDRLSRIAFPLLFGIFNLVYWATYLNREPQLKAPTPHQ
T1 sequence (P18507 whole entry): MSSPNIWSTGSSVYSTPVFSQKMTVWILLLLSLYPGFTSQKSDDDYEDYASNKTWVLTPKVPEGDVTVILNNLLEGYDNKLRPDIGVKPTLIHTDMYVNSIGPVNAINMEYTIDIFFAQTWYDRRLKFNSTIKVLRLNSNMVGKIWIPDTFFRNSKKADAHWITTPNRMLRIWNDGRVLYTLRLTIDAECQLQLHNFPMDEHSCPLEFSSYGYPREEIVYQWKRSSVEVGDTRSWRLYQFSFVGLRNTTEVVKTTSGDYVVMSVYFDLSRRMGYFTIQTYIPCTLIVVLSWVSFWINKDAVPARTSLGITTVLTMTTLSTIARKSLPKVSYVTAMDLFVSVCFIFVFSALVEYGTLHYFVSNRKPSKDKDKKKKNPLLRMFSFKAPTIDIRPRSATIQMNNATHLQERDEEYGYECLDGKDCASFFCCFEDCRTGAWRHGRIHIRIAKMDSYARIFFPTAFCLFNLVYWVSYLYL
T1 sequence (P28472 whole entry): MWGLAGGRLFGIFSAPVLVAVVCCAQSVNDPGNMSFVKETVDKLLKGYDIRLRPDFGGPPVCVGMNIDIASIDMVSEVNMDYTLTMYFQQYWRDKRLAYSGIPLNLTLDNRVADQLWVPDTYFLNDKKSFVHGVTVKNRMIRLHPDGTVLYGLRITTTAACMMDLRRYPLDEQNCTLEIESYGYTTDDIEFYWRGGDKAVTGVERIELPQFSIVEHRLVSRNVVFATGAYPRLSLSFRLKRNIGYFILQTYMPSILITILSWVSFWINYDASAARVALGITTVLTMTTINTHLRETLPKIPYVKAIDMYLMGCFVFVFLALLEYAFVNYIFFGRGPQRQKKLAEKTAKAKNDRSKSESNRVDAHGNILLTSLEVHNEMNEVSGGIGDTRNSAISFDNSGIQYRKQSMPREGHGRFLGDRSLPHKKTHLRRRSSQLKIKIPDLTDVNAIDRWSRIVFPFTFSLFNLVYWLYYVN

[2] = target: T2, GABA-A receptor; alpha-2/beta-3/gamma-2 (Homo sapiens, UniProt P18507+P28472+P47869); assay: Displacement of [3H]flunitrazepam from human recombinant GABAA alpha-2-beta-3-gamma-2 receptor expressed in HEK cells by liquid scintillation counting
T2 sequence (P18507 whole entry): T1 sequence (P18507 whole entry)
T2 sequence (P28472 whole entry): T1 sequence (P28472 whole entry)
T2 sequence (P47869 whole entry): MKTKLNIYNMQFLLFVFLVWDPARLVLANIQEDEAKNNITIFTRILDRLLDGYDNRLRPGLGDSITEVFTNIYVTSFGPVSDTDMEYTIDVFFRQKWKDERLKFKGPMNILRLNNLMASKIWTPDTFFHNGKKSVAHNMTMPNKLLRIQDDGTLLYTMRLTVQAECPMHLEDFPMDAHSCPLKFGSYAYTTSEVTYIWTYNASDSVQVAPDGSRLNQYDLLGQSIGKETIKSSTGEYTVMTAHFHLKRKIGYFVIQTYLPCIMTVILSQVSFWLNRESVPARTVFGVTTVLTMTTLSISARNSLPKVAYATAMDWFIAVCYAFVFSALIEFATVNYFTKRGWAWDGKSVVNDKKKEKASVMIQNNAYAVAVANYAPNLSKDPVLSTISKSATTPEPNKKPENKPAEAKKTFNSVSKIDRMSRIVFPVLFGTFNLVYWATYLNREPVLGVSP

[3] = target: T3, GABA-A receptor; alpha-3/beta-3/gamma-2 (Homo sapiens, UniProt P18507+P28472+P34903); assay: Displacement of [3H]flunitrazepam from human recombinant GABAA alpha-3-beta-3-gamma-2 receptor expressed in HEK cells by liquid scintillation counting
T3 sequence (P18507 whole entry): T1 sequence (P18507 whole entry)
T3 sequence (P28472 whole entry): T1 sequence (P28472 whole entry)
T3 sequence (P34903 whole entry): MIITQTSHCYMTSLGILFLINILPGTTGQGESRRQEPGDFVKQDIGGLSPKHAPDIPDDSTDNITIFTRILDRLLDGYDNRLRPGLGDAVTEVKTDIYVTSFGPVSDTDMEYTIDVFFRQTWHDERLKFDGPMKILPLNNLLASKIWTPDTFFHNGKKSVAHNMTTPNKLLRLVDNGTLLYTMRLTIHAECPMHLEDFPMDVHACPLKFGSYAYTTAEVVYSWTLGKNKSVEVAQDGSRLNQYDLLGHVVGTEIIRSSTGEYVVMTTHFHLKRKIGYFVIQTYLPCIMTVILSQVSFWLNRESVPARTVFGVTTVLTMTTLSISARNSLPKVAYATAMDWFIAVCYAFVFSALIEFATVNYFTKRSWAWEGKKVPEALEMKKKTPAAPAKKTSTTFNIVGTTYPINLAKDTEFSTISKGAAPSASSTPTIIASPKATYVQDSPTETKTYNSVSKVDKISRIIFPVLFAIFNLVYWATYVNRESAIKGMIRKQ

[4] = target: T4, GABA-A receptor; alpha-5/beta-3/gamma-2 (Homo sapiens, UniProt P18507+P28472+P31644); assay: Displacement of [3H]flunitrazepam from human recombinant GABAA alpha-5-beta-3-gamma-2 receptor expressed in HEK cells by liquid scintillation counting
T4 sequence (P18507 whole entry): T1 sequence (P18507 whole entry)
T4 sequence (P28472 whole entry): T1 sequence (P28472 whole entry)
T4 sequence (P31644 whole entry): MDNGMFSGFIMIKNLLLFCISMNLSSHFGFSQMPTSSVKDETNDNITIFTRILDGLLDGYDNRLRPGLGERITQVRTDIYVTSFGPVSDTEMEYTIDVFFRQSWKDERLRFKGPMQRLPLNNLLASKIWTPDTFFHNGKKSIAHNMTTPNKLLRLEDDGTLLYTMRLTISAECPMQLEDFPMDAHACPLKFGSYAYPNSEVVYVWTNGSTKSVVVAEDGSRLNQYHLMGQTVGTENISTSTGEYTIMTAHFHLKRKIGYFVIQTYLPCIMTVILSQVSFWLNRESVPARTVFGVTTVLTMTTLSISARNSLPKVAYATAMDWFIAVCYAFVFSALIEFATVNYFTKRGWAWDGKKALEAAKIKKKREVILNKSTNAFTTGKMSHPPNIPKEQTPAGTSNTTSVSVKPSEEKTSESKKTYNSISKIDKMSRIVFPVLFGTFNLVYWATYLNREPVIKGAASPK

[5] = target: GABA A receptor alpha-4/beta-3/gamma-2 (Homo sapiens, UniProt P18507+P28472+P48169); assay: Displacement of [3H]flunitrazepam from human recombinant GABAA alpha-4-beta-3-gamma-2 receptor expressed in HEK cells by liquid scintillation counting
[6] = target: GABA-A receptor; alpha-6/beta-3/gamma-2 (Homo sapiens, UniProt P18507+P28472+Q16445); assay: Displacement of [3H]flunitrazepam from human recombinant GABAA alpha-6-beta-3-gamma-2 receptor expressed in HEK cells by liquid scintillation counting
Sequence of GABA-A receptor; alpha-6/beta-3/gamma-2 (Q16445 whole entry, one chain of several): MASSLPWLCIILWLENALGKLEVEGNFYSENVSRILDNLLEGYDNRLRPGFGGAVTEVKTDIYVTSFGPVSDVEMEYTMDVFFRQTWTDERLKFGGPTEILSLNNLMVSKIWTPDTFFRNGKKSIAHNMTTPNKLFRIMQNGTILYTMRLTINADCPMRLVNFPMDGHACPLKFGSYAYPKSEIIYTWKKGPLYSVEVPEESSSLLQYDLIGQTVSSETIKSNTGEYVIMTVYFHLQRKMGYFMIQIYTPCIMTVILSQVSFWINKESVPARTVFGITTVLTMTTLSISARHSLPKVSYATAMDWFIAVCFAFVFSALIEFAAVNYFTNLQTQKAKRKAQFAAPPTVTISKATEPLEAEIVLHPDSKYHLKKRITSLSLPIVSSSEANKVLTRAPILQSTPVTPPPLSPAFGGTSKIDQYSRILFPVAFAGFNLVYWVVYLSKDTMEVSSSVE

Sequence of GABA A receptor alpha-4/beta-3/gamma-2 (P48169 whole entry, one chain of several): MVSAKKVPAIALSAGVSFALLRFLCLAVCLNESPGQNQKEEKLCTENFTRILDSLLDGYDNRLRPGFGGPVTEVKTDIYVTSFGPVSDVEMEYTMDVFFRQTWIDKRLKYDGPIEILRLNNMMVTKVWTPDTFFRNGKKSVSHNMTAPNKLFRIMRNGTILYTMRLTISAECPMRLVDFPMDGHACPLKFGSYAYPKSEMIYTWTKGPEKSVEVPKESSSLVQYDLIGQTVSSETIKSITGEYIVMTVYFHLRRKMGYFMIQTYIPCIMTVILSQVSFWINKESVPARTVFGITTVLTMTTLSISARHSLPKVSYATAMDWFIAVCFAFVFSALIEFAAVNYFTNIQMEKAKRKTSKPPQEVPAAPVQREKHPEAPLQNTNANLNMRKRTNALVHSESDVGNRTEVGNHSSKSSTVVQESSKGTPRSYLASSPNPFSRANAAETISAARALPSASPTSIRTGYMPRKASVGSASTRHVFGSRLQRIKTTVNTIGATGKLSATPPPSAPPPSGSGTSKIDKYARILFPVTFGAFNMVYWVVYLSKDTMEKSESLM

Row | Structure (SMILES) | Ki [1] [nM] | Ki [2] [nM] | Ki [3] [nM] | Ki [4] [nM] | Ki ([5]; read-out: Ki) [nM] | Ki [6] [nM] | Ki ([5]; hek293)
1 | CC/C=C/C=C/Oc1cc2c(cn1)[nH]c1ccccc12 | 245 | 818 | 859 |  |  |  | 
2 | O=C(OCC(F)(F)F)c1cc2c(cn1)[nH]c1ccc(I)cc12 | 12 | 39 | 47 | 122 |  |  | 
3 | O=C(OC(C(F)(F)F)C(F)(F)F)c1cc2c(cn1)[nH]c1ccccc12 | 3.99 | 8 | 32 | 461 |  |  | 
4 | CC(C)(C)OC(=O)c1cc2c(cn1)[nH]c1ccc(C#C[Si](C)(C)C)cc12 | 6.8 | 30 | 36 | 108 |  |  | 
5 | C#Cc1ccc2[nH]c3cnc(C(=O)OCC(F)(F)F)cc3c2c1 | 4.5 | 44.6 | 42.7 | 124 |  |  | 
6 | CC(C)(C)OC(=O)c1cc2c(cn1)[nH]c1ccc(C#CC#Cc3ccc4[nH]c5cnc(C(=O)OC(C)(C)C)cc5c4c3)cc12 | 120 | 1060 | 3940 |  |  |  | 
7 | O=C(OCC(F)(F)F)c1cc2c(cn1)[nH]c1ccc(-c3cccs3)cc12 | 9.2 | 13 | 72 | 449 |  |  | 
8 | C[C@@H](OC(=O)c1cc2c(cn1)[nH]c1ccccc12)C(F)(F)F | 27 | 343 | 453 | 1850 | > 3000 | > 2000 | 
9 | C[Si](C)(C)C#Cc1ccc2[nH]c3cnc(C(=O)OCC(F)(F)F)cc3c2c1 | 17 | 59 | 88 | 1440 | 200 | > 3000 | 
10 | CC(C)(C)OC(=O)c1cc2c(cn1)[nH]c1ccc(-c3ccccc3)cc12 | 3.63 | 2.02 | 44.3 | 76.5 |  |  | Not Active
11 | C[C@H](OC(=O)c1cc2c(cn1)[nH]c1ccccc12)C(F)(F)F | 90 | 931 | 172 | 1850 | > 3000 | > 2000 | 
12 | CCOC(=O)c1cc2c(cn1)[nH]c1ccc(I)cc12 | 4.8 | 31 | 34 | 286 |  |  | 
13 | CCC(OC(=O)c1cc2c(cn1)[nH]c1ccccc12)C(F)(F)F (configuration not stated) |  |  |  |  |  | > 2000 | Not Active
14 | O=C(OCC(F)(F)F)c1cc2c(cn1)[nH]c1ccc(-c3ccco3)cc12 | 26 | 143 | 117 | 127 |  |  | 
15 | C#Cc1ccc2c(c1)c1cc(C(=O)OC(C)(C)C)ncc1n2C(=O)OC(C)(C)C | 450 |  |  |  |  |  | 
16 | CC[C@H](C)OC(=O)c1cc2c(cn1)[nH]c1ccccc12 |  |  |  |  |  | > 2000 | Not Active
